# What was measured:
# [1] = target: Vascular endothelial growth factor receptor 2 (Homo sapiens, UniProt P35968); experiment: Inhibitory concentration against human vascular endothelial growth factor receptor 2
# Angiopoietin-1 receptor [2] = target: T1, Angiopoietin-1 receptor (Homo sapiens, UniProt Q02763); experiment: Inhibitory concentration against human tyrosine protein kinase receptor TIE-2
# Angiopoietin-1 receptor [3] = target: T1, Angiopoietin-1 receptor; experiment: Concentration required to inhibit autophosphorylation of tyrosine protein kinase receptor TIE-2 transfected in 3T3 cells; type: functional, cell-based, NIH3T3
# HFF = experiment: Cytotoxic concentration against HFF cells was determined; type: functional, cell-based; details: Homo sapiens
# HUVEC = experiment: Concentration required for growth inhibition of human umbilical vein endothelial cells stimulated by VEGF; type: functional, cell-based
# T1 sequence (Q02763 whole entry): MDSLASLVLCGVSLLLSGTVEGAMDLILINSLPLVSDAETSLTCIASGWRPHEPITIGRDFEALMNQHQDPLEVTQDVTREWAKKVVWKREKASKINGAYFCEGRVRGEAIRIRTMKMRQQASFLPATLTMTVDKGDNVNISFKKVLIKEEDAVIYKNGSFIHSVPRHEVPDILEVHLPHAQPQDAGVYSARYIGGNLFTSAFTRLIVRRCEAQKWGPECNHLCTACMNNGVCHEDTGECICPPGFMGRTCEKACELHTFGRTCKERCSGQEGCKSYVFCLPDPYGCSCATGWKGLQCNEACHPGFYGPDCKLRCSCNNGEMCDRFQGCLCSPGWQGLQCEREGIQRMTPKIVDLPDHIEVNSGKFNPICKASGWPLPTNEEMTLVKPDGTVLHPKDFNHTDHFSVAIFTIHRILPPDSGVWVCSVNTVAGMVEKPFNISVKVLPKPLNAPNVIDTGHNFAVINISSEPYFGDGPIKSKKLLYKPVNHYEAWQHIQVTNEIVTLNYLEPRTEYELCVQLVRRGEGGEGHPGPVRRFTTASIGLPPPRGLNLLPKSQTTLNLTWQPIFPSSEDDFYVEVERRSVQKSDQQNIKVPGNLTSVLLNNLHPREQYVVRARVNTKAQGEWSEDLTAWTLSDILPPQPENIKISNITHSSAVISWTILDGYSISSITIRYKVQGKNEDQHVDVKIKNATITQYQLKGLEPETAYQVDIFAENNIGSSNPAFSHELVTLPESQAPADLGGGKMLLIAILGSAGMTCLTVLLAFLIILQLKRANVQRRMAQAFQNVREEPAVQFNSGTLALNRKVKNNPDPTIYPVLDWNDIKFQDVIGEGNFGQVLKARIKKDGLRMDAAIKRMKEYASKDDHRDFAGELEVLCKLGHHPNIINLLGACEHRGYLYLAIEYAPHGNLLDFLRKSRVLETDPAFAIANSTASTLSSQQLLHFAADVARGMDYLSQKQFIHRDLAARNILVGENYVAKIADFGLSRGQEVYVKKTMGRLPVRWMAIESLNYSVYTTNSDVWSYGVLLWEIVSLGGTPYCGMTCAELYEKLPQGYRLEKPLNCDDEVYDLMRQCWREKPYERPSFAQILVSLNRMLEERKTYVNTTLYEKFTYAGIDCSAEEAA
# Chain of Vascular endothelial growth factor receptor 2 (P35968 whole entry): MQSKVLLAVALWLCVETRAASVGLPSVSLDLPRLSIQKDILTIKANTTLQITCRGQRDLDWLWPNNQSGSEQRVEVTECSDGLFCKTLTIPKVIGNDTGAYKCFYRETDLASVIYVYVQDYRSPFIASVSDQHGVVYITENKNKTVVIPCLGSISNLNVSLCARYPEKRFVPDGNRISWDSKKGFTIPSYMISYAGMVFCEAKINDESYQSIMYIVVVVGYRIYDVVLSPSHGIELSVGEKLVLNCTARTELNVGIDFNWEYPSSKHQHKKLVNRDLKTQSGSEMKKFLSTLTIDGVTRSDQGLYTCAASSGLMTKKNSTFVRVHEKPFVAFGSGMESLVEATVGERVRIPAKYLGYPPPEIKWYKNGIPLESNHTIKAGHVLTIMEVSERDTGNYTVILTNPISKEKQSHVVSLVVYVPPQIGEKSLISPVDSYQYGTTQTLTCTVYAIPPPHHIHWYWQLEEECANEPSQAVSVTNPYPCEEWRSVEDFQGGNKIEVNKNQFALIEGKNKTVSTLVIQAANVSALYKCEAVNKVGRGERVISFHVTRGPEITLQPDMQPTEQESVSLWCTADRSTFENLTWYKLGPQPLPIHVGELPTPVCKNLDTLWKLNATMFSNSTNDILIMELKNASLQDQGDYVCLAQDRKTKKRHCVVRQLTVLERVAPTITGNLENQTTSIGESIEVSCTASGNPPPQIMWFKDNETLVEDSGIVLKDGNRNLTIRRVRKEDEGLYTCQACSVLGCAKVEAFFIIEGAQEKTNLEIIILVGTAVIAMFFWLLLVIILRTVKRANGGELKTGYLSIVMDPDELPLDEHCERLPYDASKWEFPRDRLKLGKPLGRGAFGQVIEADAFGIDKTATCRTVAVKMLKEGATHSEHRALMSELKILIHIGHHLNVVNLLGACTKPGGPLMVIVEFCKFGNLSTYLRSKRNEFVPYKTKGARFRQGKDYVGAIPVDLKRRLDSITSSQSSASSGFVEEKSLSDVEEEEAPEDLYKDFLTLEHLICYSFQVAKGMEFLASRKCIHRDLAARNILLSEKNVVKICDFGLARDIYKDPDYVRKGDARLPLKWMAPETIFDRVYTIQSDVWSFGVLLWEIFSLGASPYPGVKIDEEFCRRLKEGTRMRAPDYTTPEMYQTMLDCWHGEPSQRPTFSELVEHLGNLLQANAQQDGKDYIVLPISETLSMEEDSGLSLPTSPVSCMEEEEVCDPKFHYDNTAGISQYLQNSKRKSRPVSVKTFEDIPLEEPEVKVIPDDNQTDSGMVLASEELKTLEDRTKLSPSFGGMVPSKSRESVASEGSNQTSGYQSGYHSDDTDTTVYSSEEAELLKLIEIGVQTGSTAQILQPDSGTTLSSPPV
SMILES,IC50 [1],IC50 (Angiopoietin-1 receptor [2]),IC50 (Angiopoietin-1 receptor [3]),IC50 (HFF),IC50 (HUVEC)
COc1ccc(-c2c(-c3ccc(Cl)c(Cl)c3)oc3ncnc(N)c23)cc1,> 20 µM,,,,
COc1ccc(-c2coc3ncnc(N)c23)cc1 [GW642125X],5.5 µM,> 20 µM,,,
COc1ccc(-c2oc3ncnc(N)c3c2-c2cccc(NC(C)=O)c2)cc1,,> 20 µM,,,
COc1ccc(-c2oc3ncnc(N)c3c2-c2ccc(NC(=O)Nc3cc(C(F)(F)F)ccc3F)cc2)cc1,0.003 µM,0.002 µM,0.0063 µM,0.79 µM,0.045 µM
COc1ccc(-c2cc3c(N)ncnc3o2)cc1 [GW642138X],> 17 µM,> 20 µM,,,
COc1ccc(-c2oc3ncnc(N)c3c2-c2ccc(OC)cc2)cc1,1.12 µM,1 µM,,,
